Measured values reported in the NIST ThermoML archive (doi:10.1016/j.jct.2013.02.022).

Tests used:
[1] = Liquid; for mass density: 101 kPa, Vibrating tube method; for vapor or sublimation pressure: Ebulliometric method (Recirculating still)
[2] = refractive index (Na D-line) (dimensionless); conditions: 101.33 kPa, Liquid, Standard Abbe refractometry
[3] = xn = mol fraction of the nth substance listed; conditions: 101 kPa, Liquid, Vibrating tube method
[4] = refractive index (Na D-line) (dimensionless); xn = mol fraction of the nth substance listed; conditions: 101 kPa, Liquid, Standard Abbe refractometry

CCCC(=O)[O-].C[NH2+]CCO [N-methyl-2-hydroxyethylammonium butanoate]
Conditions	mass density, [1] [kg/m3]	refractive index, [2]
288.15 K	1046	1.4579
293.15 K	1042.6	–
298.15 K	1039.2	–
303.15 K	1035.9	1.4534
308.15 K	1032.5	–
313.15 K	–	1.4504
313.16 K	1029.1	–
318.16 K	1025.7	–
323.16 K	1022.3	–

CCCC(=O)[O-].C[NH2+]CCO [N-methyl-2-hydroxyethylammonium butanoate] + CCCOC(C)=O
Conditions	mass density, [3] [kg/m3]	refractive index, [4]
308.15 K, x2 = 0	1032.53	–
308.15 K, x2 = 0.0785	1016.82	–
308.15 K, x2 = 0.4177	981.77	–
308.15 K, x2 = 0.9454	884.44	–
308.16 K, x2 = 0.1247	1013.03	–
308.16 K, x2 = 0.207	1003.47	–
308.16 K, x2 = 0.3035	993.9	–
308.16 K, x2 = 0.5088	968.89	–
308.16 K, x2 = 0.6042	952.99	–
308.16 K, x2 = 0.696	936.16	–
308.16 K, x2 = 0.7939	917.53	–
308.16 K, x2 = 0.8936	896.61	–
313.15 K, x2 = 0	–	1.4504
313.15 K, x2 = 0.0785	1013.32	1.4483
313.15 K, x2 = 0.1247	–	1.4457
313.15 K, x2 = 0.207	–	1.4417
313.15 K, x2 = 0.3035	989.89	1.4365
313.15 K, x2 = 0.4177	977.59	1.4288
313.15 K, x2 = 0.5088	–	1.4222
313.15 K, x2 = 0.6042	–	1.4146
313.15 K, x2 = 0.696	931.3	1.4068
313.15 K, x2 = 0.7939	–	1.3991
313.15 K, x2 = 0.8936	–	1.387
313.15 K, x2 = 0.9454	–	1.3809
313.16 K, x2 = 0	1029.14	–
313.16 K, x2 = 0.1247	1009.37	–
313.16 K, x2 = 0.207	999.76	–
313.16 K, x2 = 0.5088	964.73	–
313.16 K, x2 = 0.6042	948.38	–
313.16 K, x2 = 0.7939	912.41	–
313.16 K, x2 = 0.8936	891	–
313.16 K, x2 = 0.9454	878.87	–
318.15 K, x2 = 0.0785	1009.82	–
318.15 K, x2 = 0.207	996.08	–
318.15 K, x2 = 0.4177	973.39	–
318.15 K, x2 = 0.696	926.41	–
318.15 K, x2 = 0.7939	907.24	–
318.16 K, x2 = 0	1025.72	–
318.16 K, x2 = 0.1247	1005.67	–
318.16 K, x2 = 0.3035	985.85	–
318.16 K, x2 = 0.5088	960.4	–
318.16 K, x2 = 0.6042	943.75	–
318.16 K, x2 = 0.8936	885.74	–
318.16 K, x2 = 0.9454	873.25	–
323.15 K, x2 = 0.1247	1001.94	–
323.15 K, x2 = 0.207	992.3	–
323.15 K, x2 = 0.5088	956.04	–
323.15 K, x2 = 0.6042	939.06	–
323.15 K, x2 = 0.696	921.47	–
323.16 K, x2 = 0	1022.26	–
323.16 K, x2 = 0.0785	1006.34	–
323.16 K, x2 = 0.3035	981.79	–
323.16 K, x2 = 0.4177	969.14	–
323.16 K, x2 = 0.7939	901.89	–
323.16 K, x2 = 0.8936	880	–
323.16 K, x2 = 0.9454	867.59	–

CCOC(C)=O [ethyl acetate]
Conditions	mass density, 298.15 K [kg/m3]	mass density, 303.15 K [kg/m3]	mass density, 308.15 K [kg/m3]	mass density, 313.15 K [kg/m3]	mass density, 318.16 K [kg/m3]	mass density, 323.15 K [kg/m3]	refractive index, 303.15 K	vapor or sublimation pressure, 349.8 K [kPa]
[1]	894.9	888.76	882.58	876.34	870.06	863.73	–	101.3
[2]	–	–	–	–	–	–	1.3672	–

CCOC(C)=O [ethyl acetate] + CCCC(=O)[O-].C[NH2+]CCO
x1 = 1
Conditions	mass density, 303.15 K [kg/m3]	mass density, 308.15 K [kg/m3]	mass density, 313.15 K [kg/m3]	mass density, 318.16 K [kg/m3]	mass density, 323.15 K [kg/m3]	refractive index, 303.15 K
[3]	888.76	882.58	876.34	870.06	863.73	–
[4]	–	–	–	–	–	1.3672

COC(C)=O [methyl ethanoate]
Conditions	mass density, 288.15 K [kg/m3]	mass density, 293.14 K [kg/m3]	mass density, 298.14 K [kg/m3]	mass density, 303.14 K [kg/m3]	mass density, 308.14 K [kg/m3]	mass density, 313.14 K [kg/m3]	mass density, 318.14 K [kg/m3]	mass density, 323.15 K [kg/m3]	refractive index, 288.15 K	vapor or sublimation pressure, 330.1 K [kPa]
[1]	939.9	933.4	926.8	920.2	913.5	906.7	899.9	893	–	101.3
[2]	–	–	–	–	–	–	–	–	1.365	–

COC(C)=O [methyl ethanoate] + CCCC(=O)[O-].C[NH2+]CCO
x1 = 1
Conditions	mass density, 288.15 K [kg/m3]	mass density, 293.14 K [kg/m3]	mass density, 298.14 K [kg/m3]	mass density, 303.14 K [kg/m3]	mass density, 308.14 K [kg/m3]	mass density, 313.14 K [kg/m3]	mass density, 318.14 K [kg/m3]	mass density, 323.15 K [kg/m3]	refractive index, 288.15 K
[3]	939.9	933.4	926.8	920.2	913.5	906.7	899.9	893	–
[4]	–	–	–	–	–	–	–	–	1.365

CCCOC(C)=O [propyl ethanoate]
Conditions	mass density, 298.15 K [kg/m3]	mass density, 308.14 K [kg/m3]	mass density, 313.15 K [kg/m3]	mass density, 318.15 K [kg/m3]	mass density, 323.15 K [kg/m3]	refractive index, 313.15 K	vapor or sublimation pressure, 374 K [kPa]
[1]	882.61	871.38	865.7	860	854.26	–	101.3
[2]	–	–	–	–	–	1.3741	–

CCCOC(C)=O [propyl ethanoate] + CCCC(=O)[O-].C[NH2+]CCO
x1 = 1
Conditions	mass density, 308.14 K [kg/m3]	mass density, 313.15 K [kg/m3]	mass density, 318.15 K [kg/m3]	mass density, 323.15 K [kg/m3]	refractive index, 313.15 K
[3]	871.38	865.7	860	854.26	–
[4]	–	–	–	–	1.3741
